In publication PMC12555100, “Dextromethorphan Versus Dextrorphan: A Quantitative Comparison of Antitussive Potency Following Separate Administration of Metabolite” (Journal of Clinical Pharmacology, 2025):
In brackets after ≈: the same amount, converted by molar mass. Entries after “also recorded” stand apart in the source; their conditions may differ.

Assays:
[1] = tested on: cough response to citric acid challenge; assay: Citric acid cough challenge test, model-independent analysis of antitussive effect; assay type: in vivo, human; settings: for Emax, maximum percentage of cough number reduction, mean: mean of 23 healthy volunteers, change relative to baseline; for Emax, maximum percentage of cough number reduction, mean / Emax, maximum percentage of cough number reduction, median: after 40.5 mg dextromethorphan hydrobromide or 44.6 mg dextrorphan-D-tartrate; for AUEC0‐24 h, mean / AUEC0‐24 h, median: area under percent reduction in cough number vs time 0-24 h; for AUEC0‐24 h, mean / TEmax, time of maximum percentage of reduction in cough number, mean / AUEC0‐24 h, median / TEmax, time of maximum percentage of reduction in cough number, median: healthy volunteers; for TEmax, time of maximum percentage of reduction in cough number, mean / TEmax, time of maximum percentage of reduction in cough number, median: after DEX or DOR administration; for Emax, maximum percentage of cough number reduction, median: median of 23 healthy volunteers; for Emax and TEmax compared between DEX, DOR and placebo arms: model-independent analysis; for Antitussive effect (AUEC0‐24 h) compared between DEX, DOR and placebo arms: model-independent pairwise analysis, Friedman test with Dunn's multiple comparison
Description: The clinical trial has been performed according to the Declaration of Helsinki and was approved by the North Sheffield Research and Ethics Committee (approval number NS98/183). All participants enrolled into the clinical trial have given informed consent. Data were collected from twenty‐three healthy non‐smoker volunteers (12 male) aged 19‐51 years who took part in a double‐blind randomized placebo controlled cross‐over study. […] The exclusion criteria were respiratory tract infection or acute cough within the last 4 weeks, receiving any medication within previous 2 weeks, and any medical condition which may interfere with the study. Preceding the visit day, the volunteer was asked to fast for 8 h, abstain from alcohol, and abstain from caffeinated drinks throughout the study day. Written informed consent was obtained from all volunteers. The study was approved by the […] Research and Ethics Committee. Subjects' cough response to citric acid challenge test was studied on three separate occasions (separated at least 7 days apart) following administration of (i) placebo; (ii) 40.5 mg dextromethorphan hydrobromide; (iii) 44.6 mg of dextrorphan‐D‐tartrate. The order of treatments (placebo, DEX, and DOR) was randomized across participants using a balanced Latin square design to ensure equal distribution of sequence effects. Blood samples for PK analysis were taken periodically (at 0, 1, 2, 3, 4, 5, 6, 8, 10, 12, and 24 h post administration of DEX and DOR).
Details of the cough challenge test were described previously.[24] In summary, cough was produced by five inhalations of 3 mL 10% w/v citric acid (placed in a nebulizing chamber) over 5 min. Prior to randomization, all volunteers underwent a two‐part screening process. Volunteers who coughed between 7 and 14 times following five inhalations of a 10% citric acid solution at the first visit, were considered eligible for further screening. The second visit evaluated both interday and intraday cough response consistency. The acceptable level of variability in cough frequency was established as no more than 20% between separate days and within a single day across three separate measurements. The frequency of cough response was measured at baseline (prior to placebo or drug administration, t = −1 h) and at regular intervals up to 24 h. Cough measurements were obtained at the same time points as blood sampling.
The percent of change in cough number relative to the baseline (t = 0) was plotted against time and the maximum reduction in cough response (Emax) and its […] (TEmax) were determined. The area under the percent of reduction in cough number against time between 0 until 24 h (AUEC0‐24 h) was calculated using the trapezoidal rule. The correlation between AUEC0‐24 h and area under plasma concentration time between zero and 24 h (AUC0‐24 h) of DEX, (endogenously) formed DOR and directly administered DOR was statistically examined using Spearman rank correlation test. The Friedman test (followed by Dunn's multiple comparison) was used to compare the AUC values of DEX and DOR, as well as the AUEC values, between the different arms of the study.

[2] = tested on: cough response to citric acid challenge; assay: PK-PD effect compartment link model of cough response; assay type: in vivo, human; settings: for Between‐subject variability of ke0: PKPD model
Description: Pharmacokinetic/pharmacodynamic analysis (PKPD) of DEX and DOR was conducted using non‐linear mixed effects modelling with Monolix software, 2024R1 (Lixoft SAS, Antony, France). The analysis followed a sequential approach, where the PK parameters of both compounds were estimated initially, and then these were used alongside the cough data to build the PK/PD model. The model components are described below:
The cough response (number of coughs) of the placebo arm of the study was described by the following equation that has been reported in a previous study[27] with some minor modifications: EPlacebo=Baselinecough×scale×k×e^−k×t in which EPlacebo is the placebo effect, BaselineCough is the number of coughs at time (t) zero (before administration of any of the drugs or placebo), scale is the constant of the magnitude of the cough response, and k is the first‐order rate constant for nonlinear suppression of the cough response and return to the baseline. The distribution of all parameters was assumed to be log normal. A constant error model was used to describe intra‐individual variability.
An effect compartment model in which ke0 (DEX) and ke0 (DOR) are the effect‐site equilibration rate constants for DEX and DOR, respectively, was used to link the plasma concentrations of DEX and DOR to the combined effect of the two moieties at the same receptor. This combined effect is described by the following equation: E=EPlacebo×1−Imax×CeDEX/IC50+CeDOR×Pot/IC50^n/1+CeDEX/IC50+CeDOR×Pot/IC50^n in which I max is the maximum antitussive effect, IC50 the concentration of drugs that results in half of the maximum effect, Pot is the relative potency of DOR to DEX and CeDEX and CeDOR are the effect compartment concentrations of DEX and DOR, respectively.[23] Log‐normal distribution model was used to describe the inter‐individual variability of the model parameters and intra‐individual variability was described by a constant error model.

[3] = tested on: guinea pig brain slices; set-up: method as in PMID 2897648; settings: cited from earlier work
[4] = tested on: antitussive effect (cough); set-up: method as in PMID 12848776; settings: cited from earlier work
[5] = cited from earlier work
[6] = animal study; cited from earlier work
[7] = population estimate, common parameter of the combined DEX+DOR effect model

Compound | Emax, maximum percentage of cough number reduction, mean [1] [%] | AUEC0‐24 h, mean [1] [%hr] | TEmax, time of maximum percentage of reduction in cough number, mean [1] [h] | Emax, maximum percentage of cough number reduction, median [1] [%] | AUEC0‐24 h, median [1] [%hr] | TEmax, time of maximum percentage of reduction in cough number, median [1] [h] | Emax and TEmax compared between DEX, DOR and placebo arms [1] | Antitussive effect (AUEC0‐24 h) compared between DEX, DOR and placebo arms [1] | Between‐subject variability of ke0 [2] [CV%] | ke0, transfer rate constant from the central to the effect compartment ([2]; population estimate) [h⁻¹] | Antiepileptic activity [3] | also measured
COc1ccc2c(c1)[C@]13CCCC[C@@H]1[C@H](C2)N(C)CC3 [DEX, dextromethorphan] | −46 | −299 | 3.9 | −44 | −286 | 3.0 | no significant differences | no significant difference | 176 | 0.08 | possess antiepileptic activity | –
CN1CC[C@@]23CCCC[C@@H]2[C@@H]1Cc1ccc(O)cc13 [DOR, dextrorphan] | −45 | −189 | 6.3 | −46 | −170 | 5.5 | no significant differences | no significant difference; also recorded: did not reveal a statistically significant difference; also recorded: failed to show any statistical difference | 171 | 0.02 | possess antiepileptic activity | Maximum cough inhibition (Imax) ([2]; model-based estimate, as percent): 23%; Relative potency of DOR to DEX ([2]; population estimate, as fraction): 0.26; Imax, the maximum antitussive effect (fraction of the baseline) [2, 7]: 0.23; N, Hill coefficient [2, 7]: 2.8; Relative potency of DOR compared to DEX ([4]; modelling of quinidine interaction study, no separate DOR arm): 38%; IC50 ([4]; total concentration of DOR (conjugated with glucuronic acid and unconjugated)): 3.2 ng/mL (≈ 0.0124 µM); Water solubility [5]: > 10000 µg/mL; Antitussive activity [6]: good antitussive activity comparable to that of DEX; Tolerability compared with DEX [6]: better tolerability; Toxicity compared with DEX [6]: lower toxicity
